Assays:
[1] = tested on: LjGpx3; assay: NADPH oxidation at […] nm, thioredoxin-coupled, steady state; type: biochemical, Lotus japonicus; conditions: apparent Km, 20 μM poplar Trxh1, 1 μM A. thaliana NADPH-Trx reductase, 0.4 mM NADPH, 30 mM Tris-HCl pH 8.0, 1 mM EDTA
[2] = molecular target: T1, LjGpx1 (Lotus japonicus, UniProt Q56VU1); assay: as above; type: biochemical; conditions: apparent Km; 20 μM poplar Trxh1, 1 μM A. thaliana NADPH-Trx reductase, 0.4 mM NADPH, 30 mM Tris-HCl pH 8.0, 1 mM EDTA; acyl chains of lipid not defined
T1 sequence (Q56VU1 72-236): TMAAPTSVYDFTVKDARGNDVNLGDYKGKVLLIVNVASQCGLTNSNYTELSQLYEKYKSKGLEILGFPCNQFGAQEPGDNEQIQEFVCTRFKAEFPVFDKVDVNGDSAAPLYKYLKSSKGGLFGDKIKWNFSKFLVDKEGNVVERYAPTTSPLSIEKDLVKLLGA

Km ([1]; acyl chains of lipid not defined) [µM]	Km [2] [µM]	Compound	Km [1] [µM]
		CC(C)(OO)c1ccccc1 [Cumene hydroperoxide]	214
		CC(C)(C)OO [t-Butyl hydroperoxide]	167
1.6	1.6	Phosphatidylcholine hydroperoxide	

— PMC4423513, “Function of glutathione peroxidases in legume root nodules” (Journal of Experimental Botany, 2015)
